According to ChEMBL document CHEMBL3638626, “1,3,5-triazine-2-amine derivatives, preparation thereof and diagnostic and therapeutic use thereof” (2015):

Target: Cannabinoid receptor 2 (Homo sapiens, UniProt P34972)
Assay: Binding Assay: Affinity binding tests were performed according to the experimental conditions described by M. Rinaldi-Carmona in J. Pharmacol. Exp. Therap. 1998, 287, 644-650, with membranes derived either from rodent tissues or from recombinant cell lines in which the human CB2 receptors were expressed (Munro et al., Nature 1993, 365, 61-65). The affinity of the compounds is expressed in the form of the IC50 (concentration causing 50% inhibition of specific binding of the tritiated ligand used in vitro).

Sequence of Cannabinoid receptor 2 (P34972 whole entry): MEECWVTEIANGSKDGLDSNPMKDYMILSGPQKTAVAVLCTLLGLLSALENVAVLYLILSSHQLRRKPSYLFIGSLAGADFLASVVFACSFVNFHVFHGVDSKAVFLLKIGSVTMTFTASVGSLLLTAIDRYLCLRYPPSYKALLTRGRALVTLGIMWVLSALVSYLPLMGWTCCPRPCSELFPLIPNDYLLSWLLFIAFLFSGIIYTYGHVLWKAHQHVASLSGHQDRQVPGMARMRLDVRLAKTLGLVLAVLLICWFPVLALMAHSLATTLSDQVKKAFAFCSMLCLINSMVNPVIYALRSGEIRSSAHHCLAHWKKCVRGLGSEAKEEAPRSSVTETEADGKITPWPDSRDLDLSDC

Compound	IC50 [nM]
COc1nc(NCCc2ccc(F)cc2)nc(-c2ccc(OC)c(S(=O)(=O)NC3CC3)c2)n1	12
COc1nc(NCCc2ccc(F)cc2)nc(-c2cc3cc(F)ccc3[nH]2)n1	12
COc1nc(NCCc2ccc(OC(F)F)cc2)nc(-c2ccc(Cl)c(C(C)(C)O)c2)n1	1.2
COc1nc(NCCc2ccc(F)cc2)nc(-c2ccc(Cl)c(O)c2)n1	21
CCOC(=O)COc1cc(-c2nc(NCCc3ccc(F)cc3)nc(OC)n2)ccc1Cl	10
COc1nc(NCCc2ccc(OC(F)F)cc2)nc(-c2ccc(Cl)c(OCCCNS(C)(=O)=O)c2)n1	41

Now from value to compound:

IC50 [nM]	Compound
29	COc1cccc(-c2nc(NCCc3ccc(F)cc3)nc(OC)n2)c1
7	COc1nc(NCCc2ccc(F)cc2)nc(-c2cc3c(Cl)cccc3[nH]2)n1
9	COc1nc(NCCc2ccc(F)cc2)nc(-c2cccc(C(C)(C)O)c2)n1
1	COc1nc(NCCc2ccc(F)cc2)nc(-c2ccc(OC)c(C(C)(C)O)c2)n1
3.9	COc1nc(NCCc2ccc(OCF)cc2)nc(-c2ccc(Cl)c(C(C)(C)O)c2)n1
1	COc1nc(NCCc2ccc(F)cc2)nc(-c2ccc(Cl)c(OCC(N)=O)c2)n1
